Results reported in US20090314217A1, “APPARATUS AND METHOD FOR TREATING NON-HUMAN MAMMALS” (Under The Boardwalk Properties 8 (Proprietary) Limited, priority 2006, published 2009).

Assay: Blood tests on the horses on the days of the race (Table 1)
Format: in vivo, horse
Experimental: The apparatus 10 was used in a confidential trial to treat five horses taking part in an endurance race. The five horses were called Moniq, Shamon, Pauli, Viola and Ophelia. During treatment, the average temperature inside the enclosure 22 was between 42° C. and 45° C. and an oxygen flow rate of 1 l/min was supplied to the ozonator 52. During treatment, the average heart-rate for the non-accustomed horses was 42 beats per minute. The superficial skin temperature measured on the neck and the point of the shoulder of the horses was 39° C. in each case.
Table 1 provides information on the blood tests conducted on the five horses, on the days of the race as indicated.

[1] = horse Moniq, race day 2, treated days 1 and 2, day 1 value 4.4
[2] = horse Moniq, race day 3, treated days 1 and 2, day 1 value 4.4
[3] = horse Pauli, race day 2, pre-treated before race
[4] = horse Shamon, race day 3, treated day 2
[5] = horse Viola, race day 2, treated days 1 and 2, day 1 value 40

## O=[O+][O-] [ozone]
Horse Moniq, race day 2, treated days 1 and 2, day 1 value 0.04
  PCT: 0.07%
Horse Moniq, race day 2, treated days 1 and 2, day 1 value 0.57
  MON = monocytes: 6e+07 L⁻¹
Horse Moniq, race day 2, treated days 1 and 2, day 1 value 1.80
  LYM = lymphocytes: 1.96e+09 L⁻¹
Horse Moniq, race day 2, treated days 1 and 2, day 1 value 2.98
  CA++ = calcium: 2.98 mmol/L
[1]
  K+ = potassium: 4.3 mmol/L
  MON % = monocytes percentage: 0.6%
Horse Moniq, race day 2, treated days 1 and 2, day 1 value 4.7
  GLU = glucose: 6.1 mmol/L
Horse Moniq, race day 2, treated days 1 and 2, day 1 value 8
  BUN = blood urea nitrogen: 9 mmol/L
Horse Moniq, race day 2, treated days 1 and 2, day 1 value 10.2
  RBC = red blood cell count: 9.21e+12 L⁻¹
Horse Moniq, race day 2, treated days 1 and 2, day 1 value 10.5
  GRA = granulocytes: 7.55e+09 L⁻¹
Horse Moniq, race day 2, treated days 1 and 2, day 1 value 12
  GGT = gamma glutamiel transferase: 11 Units/liter
Horse Moniq, race day 2, treated days 1 and 2, day 1 value 12.8
  WBC = white blood cell count: 9.56e+09 L⁻¹
Horse Moniq, race day 2, treated days 1 and 2, day 1 value 14.0
  LY % = lymphocytes percentage: 20.5%
Horse Moniq, race day 2, treated days 1 and 2, day 1 value 15.1
  MCH = mean corpuscular hemoglobin: 14.7 pg
Horse Moniq, race day 2, treated days 1 and 2, day 1 value 15.5
  HB = hemoglobin: 13.6 d/deciliter
Horse Moniq, race day 2, treated days 1 and 2, day 1 value 22.5
  RDWc: 22.2%
Horse Moniq, race day 2, treated days 1 and 2, day 1 value 32.6
  PDW: 37.2
Horse Moniq, race day 2, treated days 1 and 2, day 1 value 36
  ALB = albumin: 34 gram/liter
Horse Moniq, race day 2, treated days 1 and 2, day 1 value 37
  TBIL = total biliruben: 58 µmol/L
Horse Moniq, race day 2, treated days 1 and 2, day 1 value 38
  MCV = mean corpuscular volume: 37 femtoliter
Horse Moniq, race day 2, treated days 1 and 2, day 1 value 40.0
  MCHC = mean corpuscular hemoglobin concentration: 39.6 gram/deciliter
Horse Moniq, race day 2, treated days 1 and 2, day 1 value 43
  GLOB = globulin: 40 gram/liter
Horse Moniq, race day 2, treated days 1 and 2, day 1 value 79
  TP = total protein: 75 gram/liter
Horse Moniq, race day 2, treated days 1 and 2, day 1 value 81.6
  GR % = granulocytes percentage: 78.9%
Horse Moniq, race day 2, treated days 1 and 2, day 1 value 83
  PLT = platelets: 1.24e+11 L⁻¹
Horse Moniq, race day 2, treated days 1 and 2, day 1 value 96
  CRE = creatinine: 106 µmol/L
Horse Moniq, race day 2, treated days 1 and 2, day 1 value 139
  Na+ = sodium: 137 mmol/L
Horse Moniq, race day 2, treated days 1 and 2, day 1 value 468
  AST = aspertate amino transferase: 564 Units/liter
Horse Moniq, race day 2, treated days 1 and 2, day 1 value 3873
  CK = creatine kinase: 706 International Units/liter
Horse Moniq, race day 3, treated days 1 and 2, day 1 value 0.04
  PCT: 0.07%
Horse Moniq, race day 3, treated days 1 and 2, day 1 value 0.57
  MON = monocytes: 6e+07 L⁻¹
Horse Moniq, race day 3, treated days 1 and 2, day 1 value 1.80
  LYM = lymphocytes: 1.06e+09 L⁻¹
Horse Moniq, race day 3, treated days 1 and 2, day 1 value 2.98
  CA++ = calcium: 2.98 mmol/L
[2]
  K+ = potassium: 4.3 mmol/L
  MON % = monocytes percentage: 0.6%
Horse Moniq, race day 3, treated days 1 and 2, day 1 value 4.7
  GLU = glucose: 6.1 mmol/L
Horse Moniq, race day 3, treated days 1 and 2, day 1 value 8
  BUN = blood urea nitrogen: 9 mmol/L
Horse Moniq, race day 3, treated days 1 and 2, day 1 value 10.2
  RBC = red blood cell count: 9.21e+12 L⁻¹
Horse Moniq, race day 3, treated days 1 and 2, day 1 value 10.5
  GRA = granulocytes: 7.55e+09 L⁻¹
Horse Moniq, race day 3, treated days 1 and 2, day 1 value 12
  GGT = gamma glutamiel transferase: 11 Units/liter
Horse Moniq, race day 3, treated days 1 and 2, day 1 value 12.8
  WBC = white blood cell count: 9.56e+09 L⁻¹
Horse Moniq, race day 3, treated days 1 and 2, day 1 value 14.0
  LY % = lymphocytes percentage: 20.5%
Horse Moniq, race day 3, treated days 1 and 2, day 1 value 15.1
  MCH = mean corpuscular hemoglobin: 14.7 pg
Horse Moniq, race day 3, treated days 1 and 2, day 1 value 15.5
  HB = hemoglobin: 17.0 d/deciliter
Horse Moniq, race day 3, treated days 1 and 2, day 1 value 22.5
  RDWc: 22.2%
Horse Moniq, race day 3, treated days 1 and 2, day 1 value 32.6
  PDW: 37.2
Horse Moniq, race day 3, treated days 1 and 2, day 1 value 36
  ALB = albumin: 34 gram/liter
Horse Moniq, race day 3, treated days 1 and 2, day 1 value 37
  TBIL = total biliruben: 58 µmol/L
Horse Moniq, race day 3, treated days 1 and 2, day 1 value 38
  MCV = mean corpuscular volume: 37 femtoliter
Horse Moniq, race day 3, treated days 1 and 2, day 1 value 40.0
  MCHC = mean corpuscular hemoglobin concentration: 39.6 gram/deciliter
Horse Moniq, race day 3, treated days 1 and 2, day 1 value 43
  GLOB = globulin: 40 gram/liter
Horse Moniq, race day 3, treated days 1 and 2, day 1 value 79
  TP = total protein: 75 gram/liter
Horse Moniq, race day 3, treated days 1 and 2, day 1 value 81.6
  GR % = granulocytes percentage: 78.8%
Horse Moniq, race day 3, treated days 1 and 2, day 1 value 83
  PLT = platelets: 1.27e+11 L⁻¹
Horse Moniq, race day 3, treated days 1 and 2, day 1 value 96
  CRE = creatinine: 106 µmol/L
Horse Moniq, race day 3, treated days 1 and 2, day 1 value 139
  Na+ = sodium: 137 mmol/L
Horse Moniq, race day 3, treated days 1 and 2, day 1 value 468
  AST = aspertate amino transferase: 564 Units/liter
Horse Moniq, race day 3, treated days 1 and 2, day 1 value 3873
  CK = creatine kinase: 706 International Units/liter
[3]
  ALB = albumin: 32 gram/liter
  AST = aspertate amino transferase: 379 Units/liter
  BUN = blood urea nitrogen: 9 mmol/L
  CA++ = calcium: 3.13 mmol/L
  CK = creatine kinase: 1378 International Units/liter
  CRE = creatinine: 129 µmol/L
  GGT = gamma glutamiel transferase: 19 Units/liter
  GLOB = globulin: 47 gram/liter
  GLU = glucose: *6.9 mmol/liter
  GR % = granulocytes percentage: 88.0%
  GRA = granulocytes: 1.76e+10 L⁻¹
  HB = hemoglobin: 16.6 d/deciliter
  K+ = potassium: 5.1 mmol/L
  LY % = lymphocytes percentage: 7.0%
  LYM = lymphocytes: 1.39e+09 L⁻¹
  MCH = mean corpuscular hemoglobin: 15.8 pg
  MCHC = mean corpuscular hemoglobin concentration: 38.8 gram/deciliter
  MCV = mean corpuscular volume: 41 femtoliter
  MON % = monocytes percentage: 4.0%
  MON = monocytes: 8e+08 L⁻¹
  Na+ = sodium: 143 mmol/L
  PCT: 0.05%
  PDW: 33.8
  PLT = platelets: 1.1e+11 L⁻¹
  RBC = red blood cell count: 1.05e+13 L⁻¹
  RDWc: 21.9%
  TBIL = total biliruben: 96 µmol/L
  TP = total protein: 79 gram/liter
  WBC = white blood cell count: 1.98e+10 L⁻¹
[4]
  ALB = albumin: 31 gram/liter
  AST = aspertate amino transferase: 722 Units/liter
  BUN = blood urea nitrogen: 9 mmol/L
  CA++ = calcium: 2.76 mmol/L
  CK = creatine kinase: 1450 International Units/liter
  CRE = creatinine: 122 µmol/L
  GGT = gamma glutamiel transferase: 27 Units/liter
  GLOB = globulin: 35 gram/liter
  GLU = glucose: 6.3 mmol/L
  GR % = granulocytes percentage: 78.4%
  GRA = granulocytes: 1.24e+10 L⁻¹
  HB = hemoglobin: 11.9 d/deciliter
  K+ = potassium: 3.8 mmol/L
  LY % = lymphocytes percentage: 16.4%
  LYM = lymphocytes: 2.59e+09 L⁻¹
  MCH = mean corpuscular hemoglobin: 15.8 pg
  MCHC = mean corpuscular hemoglobin concentration: 39.3 gram/deciliter
  MCV = mean corpuscular volume: 40 femtoliter
  MON % = monocytes percentage: 5.2%
  MON = monocytes: 8.2e+08 L⁻¹
  Na+ = sodium: 138 mmol/L
  PCT: 0.06%
  PDW: 35.8
  PLT = platelets: 1.02e+11 L⁻¹
  RBC = red blood cell count: 7.56e+12 L⁻¹
  RDWc: 22.1%
  TBIL = total biliruben: 52 µmol/L
  TP = total protein: 66 gram/liter
  WBC = white blood cell count: 1.58e+10 L⁻¹
Horse Viola, race day 2, treated days 1 and 2, day 1 value 0.09
  PCT: 0.05%
Horse Viola, race day 2, treated days 1 and 2, day 1 value 0.64
  MON = monocytes: 5.6e+08 L⁻¹
Horse Viola, race day 2, treated days 1 and 2, day 1 value 1.34
  LYM = lymphocytes: 2.14e+09 L⁻¹
Horse Viola, race day 2, treated days 1 and 2, day 1 value 2.9
  GLU = glucose: 5.7 mmol/L
Horse Viola, race day 2, treated days 1 and 2, day 1 value 2.97
  CA++ = calcium: 2.88 mmol/L
Horse Viola, race day 2, treated days 1 and 2, day 1 value 4.3
  MON % = monocytes percentage: 4.3%
Horse Viola, race day 2, treated days 1 and 2, day 1 value 5.1
  K+ = potassium: 3.7 mmol/L
Horse Viola, race day 2, treated days 1 and 2, day 1 value 8.9
  LY % = lymphocytes percentage: 16.3%
Horse Viola, race day 2, treated days 1 and 2, day 1 value 9
  BUN = blood urea nitrogen: 9 mmol/L
Horse Viola, race day 2, treated days 1 and 2, day 1 value 9.73
  RBC = red blood cell count: 9.03e+12 L⁻¹
Horse Viola, race day 2, treated days 1 and 2, day 1 value 13.0
  GRA = granulocytes: 1.04e+10 L⁻¹
Horse Viola, race day 2, treated days 1 and 2, day 1 value 15.0
  WBC = white blood cell count: 1.31e+10 L⁻¹
Horse Viola, race day 2, treated days 1 and 2, day 1 value 15.2
  HB = hemoglobin: 14.4 d/deciliter
Horse Viola, race day 2, treated days 1 and 2, day 1 value 15.7
  MCH = mean corpuscular hemoglobin: 16.0 pg
Horse Viola, race day 2, treated days 1 and 2, day 1 value 17
  GGT = gamma glutamiel transferase: 18 Units/liter
Horse Viola, race day 2, treated days 1 and 2, day 1 value 22.4
  RDWc: 22.6%
Horse Viola, race day 2, treated days 1 and 2, day 1 value 34
  ALB = albumin: 30 gram/liter
Horse Viola, race day 2, treated days 1 and 2, day 1 value 35.8
  PDW: 31.0
Horse Viola, race day 2, treated days 1 and 2, day 1 value 39.4
  MCHC = mean corpuscular hemoglobin concentration: 39.0 gram/deciliter
[5]
  GLOB = globulin: 39 gram/liter
  MCV = mean corpuscular volume: 41 femtoliter
Horse Viola, race day 2, treated days 1 and 2, day 1 value 41
  TBIL = total biliruben: 48 µmol/L
Horse Viola, race day 2, treated days 1 and 2, day 1 value 75
  TP = total protein: 69 gram/liter
Horse Viola, race day 2, treated days 1 and 2, day 1 value 86.8
  GR % = granulocytes percentage: 79.4%
Horse Viola, race day 2, treated days 1 and 2, day 1 value 131
  CRE = creatinine: 99 µmol/L
Horse Viola, race day 2, treated days 1 and 2, day 1 value 144
  Na+ = sodium: 138 mmol/L
Horse Viola, race day 2, treated days 1 and 2, day 1 value 146
  PLT = platelets: 9.9e+10 L⁻¹
Horse Viola, race day 2, treated days 1 and 2, day 1 value 5896
  CK = creatine kinase: 1599 International Units/liter
Horse Viola, race day 2, treated days 1 and 2, day 1 value >2000
  AST = aspertate amino transferase: 1814 Units/liter
